# Where two headings read alike, the source gives them in different places.
# Tests used:
# Colon Intestine-Chip = experiment: Barrier disruption/rescue assay in organoid-derived Colon Intestine-Chip (apparent permeability, 3 kDa dextran); format: cell-based, human
# Method: As one example, to evaluate the integrity of the intestinal barrier 3 kDa Cascade Blue dextran (Sigma, D7132) was added to the epithelial compartment of the Duodenum-Chip at 0.1 mg/ml on the day of connecting a microfluidic device to flow, e.g., see exemplary timelines. Effluents of the endothelial compartment were sampled 3 hours after the addition of a dye, up to 24 hours, up to 48 hours, up to 72 hours, or at 48 hour intervals until the end of the assay, in order to determine the concentration of dye that has diffused through the membrane.
# The apparent paracellular permeability (Papp) was calculated based on a standard curve and using the following formula: […]
# In some embodiments, a microfluidic device as described herein, is used for an in vitro assay for evaluating a substance for its ability or efficacy of ‘rescuing’ barrier function. In some embodiments, a human intestine chip is used for an in vitro assay for evaluating a substance for ‘rescuing’ barrier function. In some embodiments, a human intestine chip is an organoids-derived colonic intestine chip. In some embodiments, Organoids-derived Colonic Epithelial Cells are seeded into one channel with Intestinal Microvascular Endothelial Cells seeded into an opposing channel separated by a membrane, as described herein. After seeding cells on Day 0, flow was initiated on Day 1 with stretch initiated on Day 2.
# The following is an exemplary timeline for one embodiment of a Barrier Disruption/Rescue Assay, e.g. rescuing 3 hours of injury by a peptide substance, e.g. AT1002 (synthetic peptide H-FCIGRL-OH of ZO toxin) with AT1001, larzaride acetate. Day −5: experiment preparation (prep), as described herein; Day 0: Intestine chip seeding both cells types, epithelial and endothelial; Day 1 starting flow; Day 2 starting stretch, in some embodiments starting […] at lower levels then increasing up to 10% over 24 hours (1 day), over 2 days, or over 3 days; Day 5; starting Injury/Rescue Assay: using a known reversible injury inducing substance: Injure period starting at 0 hour continuing up to 3 hours, or more. Day 6 first readout time point (24 hours); Day 7, in some embodiments, Fix cells at 48 hours post injury; Days 7-21, in some embodiments, initiate at least one Endpoint Assay for analysis; and in some embodiments Day 21 is a report-out of assay. Exemplary check timepoints for readouts: 0, 24 and 48 hours after initiation of injury inducing substance. In some embodiments, Endpoint Assays and Analysis are done on Day 14. In some embodiments, Endpoint Assays and Analysis are done on Day 21. In some embodiments, a test substance for ‘rescuing’ damage may be evaluated within 14 days. In some embodiments, a test substance for ‘rescuing’ damage may be evaluated within 21 days from the beginning of cell culturing. […]
# Caco-2 cell monolayers = conditions: cited from earlier work
# mouse PXR (mPXR) = molecular target: T1, mouse PXR (mPXR) (Mus musculus, UniProt O54915); conditions: cited from earlier work
# T1 sequence (O54915 1-431): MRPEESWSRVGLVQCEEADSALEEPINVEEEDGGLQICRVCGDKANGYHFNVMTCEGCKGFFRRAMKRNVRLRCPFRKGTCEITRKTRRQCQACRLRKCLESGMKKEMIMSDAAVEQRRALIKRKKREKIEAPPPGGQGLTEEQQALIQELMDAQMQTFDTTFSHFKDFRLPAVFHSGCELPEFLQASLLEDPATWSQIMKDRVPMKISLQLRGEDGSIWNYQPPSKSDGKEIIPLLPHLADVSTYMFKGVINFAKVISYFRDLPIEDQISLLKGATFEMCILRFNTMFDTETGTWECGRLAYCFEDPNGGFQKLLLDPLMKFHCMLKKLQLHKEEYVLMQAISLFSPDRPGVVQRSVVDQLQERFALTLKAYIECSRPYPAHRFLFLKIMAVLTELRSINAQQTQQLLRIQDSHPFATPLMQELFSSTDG
# MDR1 (P-gp) [1] = molecular target: T2, MDR1 (P-gp) (Homo sapiens, UniProt P08183); conditions: 22 μM
# T2 sequence (P08183 whole entry): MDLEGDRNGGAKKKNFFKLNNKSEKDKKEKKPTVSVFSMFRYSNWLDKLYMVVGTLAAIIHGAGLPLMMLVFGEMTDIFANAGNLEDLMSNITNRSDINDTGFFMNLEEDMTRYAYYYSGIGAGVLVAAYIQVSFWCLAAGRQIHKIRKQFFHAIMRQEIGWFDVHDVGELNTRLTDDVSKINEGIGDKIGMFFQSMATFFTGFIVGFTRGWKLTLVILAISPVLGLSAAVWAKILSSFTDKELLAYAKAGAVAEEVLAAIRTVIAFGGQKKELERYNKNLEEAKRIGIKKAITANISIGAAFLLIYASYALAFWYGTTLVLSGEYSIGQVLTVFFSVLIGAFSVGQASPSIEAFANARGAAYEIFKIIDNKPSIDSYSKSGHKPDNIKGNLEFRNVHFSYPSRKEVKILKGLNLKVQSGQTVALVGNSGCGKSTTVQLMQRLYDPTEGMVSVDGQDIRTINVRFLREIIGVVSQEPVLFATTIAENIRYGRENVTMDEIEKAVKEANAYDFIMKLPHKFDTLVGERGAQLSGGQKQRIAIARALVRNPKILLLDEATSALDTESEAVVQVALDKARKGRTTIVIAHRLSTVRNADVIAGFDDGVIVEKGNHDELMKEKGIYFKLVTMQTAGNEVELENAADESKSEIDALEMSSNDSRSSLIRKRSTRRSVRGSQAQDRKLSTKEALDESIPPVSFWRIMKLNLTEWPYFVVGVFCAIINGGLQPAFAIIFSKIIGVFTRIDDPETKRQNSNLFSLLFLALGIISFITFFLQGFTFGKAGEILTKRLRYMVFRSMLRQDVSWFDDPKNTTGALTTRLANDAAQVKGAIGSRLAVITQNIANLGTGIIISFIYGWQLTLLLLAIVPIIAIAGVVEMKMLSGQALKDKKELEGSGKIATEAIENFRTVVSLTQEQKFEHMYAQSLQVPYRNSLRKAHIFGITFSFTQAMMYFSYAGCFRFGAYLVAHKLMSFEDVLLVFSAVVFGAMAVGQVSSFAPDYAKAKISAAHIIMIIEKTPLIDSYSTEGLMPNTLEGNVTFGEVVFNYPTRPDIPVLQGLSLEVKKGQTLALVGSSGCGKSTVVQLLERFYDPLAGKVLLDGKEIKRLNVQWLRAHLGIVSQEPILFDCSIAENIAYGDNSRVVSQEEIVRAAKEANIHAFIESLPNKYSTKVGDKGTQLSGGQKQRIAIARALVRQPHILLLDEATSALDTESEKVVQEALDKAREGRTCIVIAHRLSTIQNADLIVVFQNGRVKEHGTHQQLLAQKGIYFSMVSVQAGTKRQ
# Method: (§1) To evaluate the applicability of this system for the studies of pharmacology related questions we assessed the presence and localization of major intestinal drug transporters in Duodenum-Chips established from the tissue of 3 different donors by qRT-PCR and immunofluorescent imaging.
# (§2) The transporter activity of MDR-1/P-gp was assessed using the MDR1 Efflux Assay Kit (e.g., ECM910, Millipore), as per manufacturer's instructions. […] Intracellular accumulation of dye, was detected by fluorescent imaging (Olympus IX83) and measured in the presence and absence of MDR-1 specific inhibitor vinblastine (22 μM). At least three independent experiments were performed for Caco2 Intestine-Chips and Duodenum-Chips, each using chips established from a different donor of biopsy-derived organoids. At least three different chips were used per condition, images of each were taken at three different fields of view, digitally processed and quantified using Fiji software.
# MDR1 (P-gp) [2] = molecular target: T2, MDR1 (P-gp); conditions: 22 μM; remark: listed apart in the source
# Method: as §1, §2
# CYP3A4 [3] = tested on: CYP3A4
# CYP3A4 [4] = tested on: CYP3A4; remark: listed apart in the source
# Colon-Chip = experiment: IL-13 mediated enrichment of tuft cells in Colon-Chip; format: cell-based, human; conditions: 10 ng/ml
# Method: Stimulation: Exposure of Colon-Chips and ileal and colonic organoids (serve as a control) to 10 ng/ml of IL-13.
# Read-outs: mRNA expression of genes specific for Tuft cells: Trpm5, ChAT, Dclkl and for goblet cells: Muc2, TFF3, etc., (to assess concomitant expansion of goblet cell populations) at day 2, 3 and 6 post-treatment corresponding to day 4, 5 and 8 of Colon-Chip culture.
# IL-13 treatment has no negative impact of Colon-Chip tissue morphology and barrier function.
# Summary of IL-13 mediated enrichment of the tuft cells in Colon-Chip. […] We performed stimulation of Colon-Chips with IL-13 in order to drive tuft cell differentiation and enrich for the presence of these cells in Intestine-Chip platform. […] In some embodiments, Gene expression levels of Tuft cell (Trpm5, ChAT) and goblet cell (Muc2, TFF3) specific markers are evaluated.
# mouse CAR (mCAR) = molecular target: T3, mouse CAR (mCAR) (Mus musculus, UniProt O35627); conditions: cited from earlier work
# T3 sequence (O35627 1-358): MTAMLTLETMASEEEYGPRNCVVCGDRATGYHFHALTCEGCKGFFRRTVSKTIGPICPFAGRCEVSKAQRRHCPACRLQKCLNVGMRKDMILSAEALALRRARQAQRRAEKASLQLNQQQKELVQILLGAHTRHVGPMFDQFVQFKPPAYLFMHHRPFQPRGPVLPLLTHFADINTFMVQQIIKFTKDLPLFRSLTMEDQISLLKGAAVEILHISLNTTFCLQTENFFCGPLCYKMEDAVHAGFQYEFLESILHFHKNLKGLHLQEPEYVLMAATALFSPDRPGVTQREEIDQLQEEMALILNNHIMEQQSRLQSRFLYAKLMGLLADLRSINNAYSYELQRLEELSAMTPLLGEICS
# human CAR (hCAR) = molecular target: T4, human CAR (hCAR) (Homo sapiens, UniProt Q14994); conditions: cited from earlier work
# T4 sequence (Q14994 1-352): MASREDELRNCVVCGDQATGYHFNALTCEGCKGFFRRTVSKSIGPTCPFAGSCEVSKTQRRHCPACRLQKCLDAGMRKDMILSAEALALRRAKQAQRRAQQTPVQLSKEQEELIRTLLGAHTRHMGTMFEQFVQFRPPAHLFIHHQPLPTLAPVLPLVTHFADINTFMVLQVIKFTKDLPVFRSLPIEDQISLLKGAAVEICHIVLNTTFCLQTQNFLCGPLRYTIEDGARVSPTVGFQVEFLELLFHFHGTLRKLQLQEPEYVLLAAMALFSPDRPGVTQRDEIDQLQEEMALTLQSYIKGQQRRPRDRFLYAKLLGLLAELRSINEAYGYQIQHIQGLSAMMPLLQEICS
# human PXR (hPXR) = molecular target: T5, human PXR (hPXR) (Homo sapiens, UniProt O75469); conditions: cited from earlier work
# T5 sequence (O75469 1-434): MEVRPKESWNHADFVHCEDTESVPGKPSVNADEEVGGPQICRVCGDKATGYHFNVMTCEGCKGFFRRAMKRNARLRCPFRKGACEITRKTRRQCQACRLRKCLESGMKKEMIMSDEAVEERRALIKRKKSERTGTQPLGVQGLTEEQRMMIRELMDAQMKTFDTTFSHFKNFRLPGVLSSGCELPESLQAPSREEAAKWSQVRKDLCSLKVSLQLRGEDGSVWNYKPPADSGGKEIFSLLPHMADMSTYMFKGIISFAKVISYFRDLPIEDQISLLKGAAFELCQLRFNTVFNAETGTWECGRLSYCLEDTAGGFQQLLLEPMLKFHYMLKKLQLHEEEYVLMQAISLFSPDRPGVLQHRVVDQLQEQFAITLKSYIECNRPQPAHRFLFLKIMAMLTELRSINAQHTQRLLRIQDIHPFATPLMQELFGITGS
# [5] = tested on: Mixed primary murine intestinal cultures; conditions: 3 uM, 2 hours, GLP-1 active ELISA kit, Millipore, cited from earlier work
compound,measurement,setting,value
Larazotide acetate,restoration of barrier integrity/function injured by IFN-gamma,"Colon Intestine-Chip; 12.5 mM, IFN-gamma 25 ng/ml, 3 KDa Dextran Texas Red, N=5",partially restored/rescued
same,restore/rescue of barrier integrity,"Colon Intestine-Chip; Colon Intestine-Chip exposed to AT1002, 20 mM, after 24 hours, N=5",up to 100%
same,increase in TJ permeability elicited by basolaterally applied cytokines,Caco-2 cell monolayers; apically applied,inhibited
H-FCIGRL-OH [AT1002],"injury effect on barrier (apparent permeability, 3 KDa Dextran Cascade Blue)",Colon Intestine-Chip; organoid-derived colon chip,barrier disruption in a concentration-dependent manner
same,lucifer yellow permeability,Caco-2 cell monolayers; Caco-2 cell monolayers,increase
same,transepithelial electrical resistance (TEER),Caco-2 cell monolayers; Caco-2 cell monolayers,reversible reduction
same,cytotoxicity,Caco-2 cell monolayers,no overt cytotoxicity
CCOP(=O)(OCC)C(=Cc1cc(C(C)(C)C)c(O)c(C(C)(C)C)c1)P(=O)(OCC)OCC [SR12813],agonism at mouse PXR,mouse PXR (mPXR),not for mouse PXR
CC[C@]1(O)C[C@@H]2CN(CCc3c([nH]c4ccccc34)[C@@](C(=O)OC)(c3cc4c(cc3OC)N(C)[C@H]3[C@@](O)(C(=O)OC)[C@H](OC(C)=O)[C@]5(CC)C=CCN6CC[C@]43[C@@H]65)C2)C1 [vinblastine],increase in intracellular accumulation of rhodamine 123,MDR1 (P-gp) [1],2.14 fold
same,increase in intracellular accumulation of rhodamine 123,MDR1 (P-gp) [2],1.84 fold
IFN-gamma: injury inducing cytokine,permeability of Colon Intestine Chip,"Colon Intestine-Chip; 10 ng/ml - 50 ng/ml, 48 hours, 3 KDa Dextran Cascade Blue",increases post 48 hours independent of IFN-gamma concentrations tested
"C=C1/C(=C\C=C2/CCC[C@]3(C)[C@@H]([C@H](C)CCCC(C)(C)O)CC[C@@H]23)C[C@@H](O)C[C@@H]1O [VD3, 1,25-dihidroxyvitamin D3]",CYP3A4 drug metabolism activity,CYP3A4 [3]; Duodenum Intestine-Chip,significantly increased
same,CYP3A4 protein levels,CYP3A4 [3]; Duodenum Intestine-Chip,significantly increased
same,induction of CYP3A4 expression relative to DMSO-treated controls,"CYP3A4 [3]; Duodenum-Chip, average of 3 donors, 20 μM RIF or 100 nM VD3, 48 h",4.1 fold
same,CYP3A4 induction (in words),CYP3A4 [4]; Caco-2 Intestine-Chip,induced
same,metabolic activity of CYP3A4,CYP3A4 [4]; Caco-2 Intestine-Chip,no effect
same,CYP3A4 induction (in words),"CYP3A4 [4]; Caco-2 Intestine-Chip, listed as Vitamin D3",showed induction
same,CYP3A4 protein level (Western Blot),CYP3A4 [4]; Caco-2 cells after inducer treatment,below the limit of detection
same,enhancement of CYP3A4 mRNA level,"CYP3A4 [4]; Caco-2 cells, 100 nM, 48 h",316 fold
IL-13: cytokine used to drive tuft cell differentiation,effect on Colon-Chip morphology and barrier function,Colon-Chip,no negative effect
same,tuft cell population,Colon-Chip,Enrichment
"Clc1ccc(-c2nc3sccn3c2C=NOCc2ccc(Cl)c(Cl)c2)cc1 [CITCO, 6-(4-chlorophenyl)imidazo[2,1-b][1,3]thiazole-5-carbaldehyde-O-(3,4-dichlorobenzyl)oxime]",agonism at mouse CAR,mouse CAR (mCAR),not mouse CAR
same,agonism at human CAR,human CAR (hCAR),strong agonist
"CC(=O)[C@H]1[C@H](C#N)C[C@H]2[C@@H]3CC=C4C[C@@H](O)CC[C@]4(C)[C@H]3CC[C@@]21C [PCN, 5-pregnen-3β-ol-20-one-16α-carbonitrile]",agonism at mouse PXR,mouse PXR (mPXR),potent mPXR agonist
same,agonism at human PXR,human PXR (hPXR),poor agonist
"Clc1cnc(Oc2ccc(Oc3ncc(Cl)cc3Cl)cc2)c(Cl)c1 [TCPOBOP, 1,4-bis-[2-(3,5-dichloropyridyloxy)]benzene,3,3′.5.5′-tetrachloro-1,4-bis(pyridyloxy)benzene]",selectivity mCAR versus hCAR,mouse CAR (mCAR),more selective for mCAR than hCAR
Cc1onc(-c2ccccc2Cl)c1C(=O)N(C)c1ccc(Cl)cc1 [GPBAR-A],GLP-1 Concentration (fold increase) in the presence of 10 mM glucose,[5]; in the presence of 10 mM glucose,3.5 fold increase
same,GLP-1 Concentration (fold increase),[5],2.5 fold increase

# From US20200224136A1, “INTESTINE-CHIP: DIFFERENTIAL GENE EXPRESSION MODEL” (priority 2019, published 2020)
